How the values were obtained:
[1] = target: T1, Human recombinant MMP-13 (Homo sapiens, UniProt P45452); experiment: In vitro MMP inhibition, IC50 determination (fluorogenic substrate I); type: biochemical; conditions: value outside parentheses (Ki in parenthesis)
T1 construct: made in house; host or cells: baculovirus / insect cells
Experimental: (§1) Several hydroxamates and salts thereof were analyzed in in vitro assays to determine their ability to inhibit the MMP cleavage of peptide substrates. Inhibition (Ki) and IC50 constants were calculated from the assayed hydroxamate-MMP interactions.
(§2) Human recombinant MMP-1, MMP-2, MMP-9, MMP-13, and MMP-14 were used in this assay. All enzymes were prepared in Assignee's laboratories following usual laboratory procedures. Protocols for the preparation and use of these enzymes are available in the scientific literature. See, e.g., Enzyme Nomenclature (Academic Press, San Diego, Calif., 1992) (and the citations therein). See also, Frije et al., J. Biol. Chem., 26(24), 16766-73 (1994).
The expressed proenzyme was first purified over a heparin agarose column, and then over a chelating zinc chloride column. The proenzyme was then activated by APMA for use in the assay. Further details on baculovirus expression systems may be found in, for example, Luckow et al., J. Virol., 67, 4566-79 (1993). See also, O'Reilly et al, Baculovirus Expression Vectors: A Laboratory Manual (W. H. Freeman and Co., New York, N.Y., 1992). See also, King et al., The Baculovirus Expression System: A Laboratory Guide (Chapman & Hall, London, England, 1992).
(§3) All MMPs were activated using 4-aminophenylmercuric acetate (“APMA”, Sigma Chemical, St. Louis, Mo.) or trypsin. MMP-9 also was activated using human recombinant MMP-3 (purified in Assignee's laboratory following standard cloning and purification techniques).
(§4) Two fluorogenic, methoxycoumarin-containing polypeptide substrates were used in the MMP inhibition assays:
(§5) MCA-ProLeuGlyLeuDpaAlaArgNH2 (I)
(§6) Here, “Dpa” is 3-(2,4-dinitrophenyl)-L-2,3-diaminopropionyl group, and “MCA” is 7-methoxycoumarin-4-yl acetyl. Substrate (I) was purchased from Baychem (Redwood City, Calif.), and substrate II was prepared Assignee's laboratory. Substrate I was used in the IC50 determination assays, while substrate II was used in the Ki determination assays. In the absence of MMP inhibitory activity, either substrate is cleaved at the Gly-Leu peptide bond. This cleavage separates the highly fluorogenic peptide from the 2,4-dinitrophenyl quencher, thus resulting in increase of fluorescent intensity.
(§7) The stock solutions of the assayed hydroxamates (or salts thereof) were prepared in 1% dimethyl sulfoxide (DMSO). These stock solutions were diluted in Buffer A (100 mM Tris-HCl, 100 mM NaCl, 10 mM CaCl2, 0.05% polyoxyethylene 23 lauryl ether, pH 7.5) to obtain solutions with different hydroxamate concentrations, i.e., assay solutions with different concentrations of the assayed MMP inhibitory compound. The experiment controls contained the same amount of Buffer A/DMSO as the assayed sample, but contained no hydroxamate (or salt thereof).
(§8) The assays from which the IC50 determinations were made were performed as follows. The MMPs were activated with either trypsin or APMA (4-aminophenylmercuric acetate, Sigma Chemical, St. Louis, Mo.). The assayed hydroxamate samples were, incubated in Microfluorrm White Plates (Dynatech, Chantilly, VA) and analyzed on a Perkin Elmer L550 plate reader (Norwalk, Conn.). The excitation wavelength was 328 nm, and the emission wavelength—415 nm. All samples (assayed hydroxamates and controls) were incubated in separate plates at room temperature in the presence of 4 μM of MMP substrate (I). As stated in the previous paragraph, samples containing varying concentrations of the same assayed hydroxamate were prepared. Inhibition was measured as a reduction in fluorescent intensity as a function of MMP inhibitor concentration.

[2] = target: T2, Human recombinant MMP-2 (Homo sapiens, UniProt P08253); experiment: as above; type: biochemical; conditions: value outside parentheses (Ki in parenthesis)
T2 construct: made in house; host or cells: MMP-2-transfected p2AHT2 cells
T2 sequence (P08253 110-660): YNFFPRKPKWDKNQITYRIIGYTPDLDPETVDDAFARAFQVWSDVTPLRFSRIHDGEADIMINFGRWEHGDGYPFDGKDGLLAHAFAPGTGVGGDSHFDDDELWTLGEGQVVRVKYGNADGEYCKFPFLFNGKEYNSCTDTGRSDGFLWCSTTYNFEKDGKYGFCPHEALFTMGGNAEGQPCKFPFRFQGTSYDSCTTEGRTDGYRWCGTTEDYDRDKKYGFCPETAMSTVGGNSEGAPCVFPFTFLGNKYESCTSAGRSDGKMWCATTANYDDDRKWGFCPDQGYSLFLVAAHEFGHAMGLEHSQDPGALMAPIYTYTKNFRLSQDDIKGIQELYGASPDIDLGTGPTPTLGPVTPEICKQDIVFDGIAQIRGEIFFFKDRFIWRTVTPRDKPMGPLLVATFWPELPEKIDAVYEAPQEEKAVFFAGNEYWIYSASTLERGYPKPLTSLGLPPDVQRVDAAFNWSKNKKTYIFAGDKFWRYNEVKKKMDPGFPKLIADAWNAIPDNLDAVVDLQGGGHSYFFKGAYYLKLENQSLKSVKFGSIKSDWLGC
Experimental: as §1, §2
The MMP-2 proenzyme was purified by gelatin Sepharose chromatography from MMP-2-transfected p2AHT2 cells provided by Dr. Gregory Goldberg of Washington University (St. Louis, Mo.).
as §3, §4, §5, §6, §7, §8

Compound	IC50 [1] [nM]	IC50 [2] [nM]
O=C(NCCCOc1ccc(S(=O)(=O)C2(C(=O)NO)CCOCC2)cc1)c1ccc(-c2ccccc2)cc1 [Example 365]	0.6	21
N#Cc1cccc(C(=O)NCCCOc2ccc(S(=O)(=O)C3(C(=O)NO)CCOCC3)cc2)c1 [Example 367]	4.5	235
O=C(NCCCOc1ccc(S(=O)(=O)C2(C(=O)NO)CCOCC2)cc1)c1ccc([N+](=O)[O-])cc1 [Example 369]	1.5	155
Cc1cc(C)c(C(=O)NCCCOc2ccc(S(=O)(=O)C3(C(=O)NO)CCOCC3)cc2)c(C)c1 [Example 370]	37	900
O=C(NCCCOc1ccc(S(=O)(=O)C2(C(=O)NO)CCOCC2)cc1)c1ccccc1O [Example 372]	6	210
CC(C)(C)c1ccc(C(=O)NCCCOc2ccc(S(=O)(=O)C3(C(=O)NO)CCOCC3)cc2)cc1 [Example 374]	8	800
O=C(NCCCOc1ccc(S(=O)(=O)C2(C(=O)NO)CCOCC2)cc1)c1cccc2ccccc12 [Example 375]	17	425
O=C(NCCCOc1ccc(S(=O)(=O)C2(C(=O)NO)CCOCC2)cc1)c1cc2cc(O)ccc2cc1O [Example 378]	2.7	655
COc1ccc2cc(C(=O)NCCCOc3ccc(S(=O)(=O)C4(C(=O)NO)CCOCC4)cc3)ccc2c1 [Example 380]	0.2	450
N#Cc1ccc(C(=O)NCCCOc2ccc(S(=O)(=O)C3(C(=O)NO)CCOCC3)cc2)cc1 [Example 387]	2.2	83
O=C(NCCCOc1ccc(S(=O)(=O)C2(C(=O)NO)CCOCC2)cc1)c1ccc2ccccc2c1O [Example 388]	2	185
O=C(NCCCOc1ccc(S(=O)(=O)C2(C(=O)NO)CCOCC2)cc1)c1ccc2ccccc2n1 [Example 389]	0.5	47
COc1ccc(C(=O)NCCOc2ccc(S(=O)(=O)C3(C(=O)NO)CCOCC3)cc2)cc1 [Example 393]	45	50
CN(C)c1ccc(C(=O)NCCCCOc2ccc(S(=O)(=O)C3(C(=O)NO)CCOCC3)cc2)cc1 [Example 397]	14	3
O=C(NCCCOc1ccc(S(=O)(=O)C2(C(=O)NO)CCOCC2)cc1)C1CCCCC1 [Example 399]	8	650
O=C(NCCCOc1ccc(S(=O)(=O)C2(C(=O)NO)CCOCC2)cc1)C1CCCC1 [Example 400]	9	326
CC(C)(C(=O)NCCCOc1ccc(S(=O)(=O)C2(C(=O)NO)CCOCC2)cc1)c1ccccc1 [Example 404]	15	254
O=C(NO)C1(S(=O)(=O)c2ccc(OCCCSc3nc4c(Cl)cc(Cl)cc4o3)cc2)CCOCC1 [Example 407]	25	285
O=C(NO)C1(S(=O)(=O)c2ccc(OCCCCCN3CCCc4ccccc43)cc2)CCOCC1 [Example 414]	14	37
COc1ccc2c(c1)CCCN2CCCCCOc1ccc(S(=O)(=O)C2(C(=O)NO)CCOCC2)cc1 [Example 416]	8.6	17
COc1ccc(S(=O)(=O)NCCCOc2ccc(S(=O)(=O)C3(C(=O)NO)CCOCC3)cc2)cc1 [Example 419]	4	120
COc1ccc(C(=O)N2CCCC(COc3ccc(S(=O)(=O)C4(C(=O)NO)CCOCC4)cc3)C2)cc1 (stereo not shown) [Example 421]	256	649
O=C(c1cccc(C(F)(F)F)c1)N1CC[C@@H](Oc2ccc(S(=O)(=O)C3(C(=O)NO)CCOCC3)cc2)C1 [Example 424]	192	485
O=C(C1CCCCC1)N1CC[C@@H](Oc2ccc(S(=O)(=O)C3(C(=O)NO)CCOCC3)cc2)C1 [Example 425]	3310	> 10000
COc1ccc(C(=O)N2CC[C@@H](Oc3ccc(S(=O)(=O)C4(C(=O)NO)CCOCC4)cc3)C2)cc1OC [Example 426]	5150	> 10000

The remaining compounds from weak to strong by IC50 [1], led by results:

IC50 [1] [nM]	IC50 [2] [nM]	Compound
1900	3200	C[C@H](COc1ccc(S(=O)(=O)C2(C(=O)NO)CCOCC2)cc1)NC(=O)c1ccc(N(C)C)cc1 [Example 394]
1590	9000	O=C(c1ccc(OC(F)(F)F)cc1)N1CC[C@@H](Oc2ccc(S(=O)(=O)C3(C(=O)NO)CCOCC3)cc2)C1 [Example 423]
1480	7200	COc1ccc(C(=O)N2CC[C@@H](Oc3ccc(S(=O)(=O)C4(C(=O)NO)CCOCC4)cc3)C2)cc1 [Example 422]
305	6000	C[C@@H](COc1ccc(S(=O)(=O)C2(C(=O)NO)CCOCC2)cc1)NC(=O)c1ccc(N(C)C)cc1 [Example 395]
41	313	O=C(NO)C1(S(=O)(=O)c2ccc(OCCCN3CCCc4ccccc43)cc2)CCOCC1 [Example 412]
30	454	CCCC(C)(C)C(=O)NCCCOc1ccc(S(=O)(=O)C2(C(=O)NO)CCOCC2)cc1 [Example 402]
10	258	O=C(NCCCOc1ccc(S(=O)(=O)C2(C(=O)NO)CCOCC2)cc1)c1cc2cccc(O)c2cc1O [Example 379]
8	61	O=C(NO)C1(S(=O)(=O)c2ccc(OCCCCN3CCCc4ccccc43)cc2)CCOCC1 [Example 413]
7.5	351	O=C(NCCCOc1ccc(S(=O)(=O)C2(C(=O)NO)CCOCC2)cc1)c1ccncc1 [Example 383]
7	900	Cn1cccc1C(=O)NCCCOc1ccc(S(=O)(=O)C2(C(=O)NO)CCOCC2)cc1 [Example 391]
5.9	1270	COc1ccc2cc(O)c(C(=O)NCCCOc3ccc(S(=O)(=O)C4(C(=O)NO)CCOCC4)cc3)cc2c1 [Example 377]
4	4	COc1ccc(C(=O)NCCCCOc2ccc(S(=O)(=O)C3(C(=O)NO)CCOCC3)cc2)cc1 [Example 396]
2.6	315	O=C(NCCCOc1ccc(S(=O)(=O)C2(C(=O)NO)CCOCC2)cc1)c1ccccc1 [Example 417]
1.7	59	O=C(NCCCOc1ccc(S(=O)(=O)C2(C(=O)NO)CCOCC2)cc1)c1ccccn1 [Example 382]
1.4	193	O=C(NCCCOc1ccc(S(=O)(=O)C2(C(=O)NO)CCOCC2)cc1)c1ccc(Cl)nc1 [Example 381]
0.3	347	O=C(NCCCOc1ccc(S(=O)(=O)C2(C(=O)NO)CCOCC2)cc1)c1ccc2ccccc2c1 [Example 366]

Source: patent US20040024024A1, “Aromatic sulfone hydroxamates and their use as protease inhibitors” (priority 2001, published 2004)
